Entries after “also recorded” stand apart in the source; their conditions may differ.
Legend:
BAEC [1] = experiment: Effects of tocotrienols on multiplication of BAEC, MTT assay; type: cell-based, bovine; conditions: for Absorbance: MTT, sample 10 μM
Experimental: Normal bovine aortic endothelial cells (BAEC) were manufactured by Cell Systems Co., and purchased through Dainippon Seiyaku Co., Ltd.
A cell suspension was prepared by adding the cells to MEM (Sigma Chemical Co.) containing 10 v/v (%) fetal bovine serum (FBS), 20 IU/ml penicillin and 20 IU/ml streptomycin (MEM+10% FBS) in a concentration of 1×10^5 cells/ml, and cultured in a 5% CO2 incubator at 37° C. by using a 60 mm dish coated with type I collagen with subculturing every 2 to 3 days.
Each of the above samples was added to MEM containing 2% (v/v) FBS, 20 IU/ml penicillin and 20 IU/ml streptomycin (MEM+2% FBS), and subjected to testing.
Effects of tocotrienols on the multiplication of BAEC were examined by using MTT assay.
(§1) Each one microplate was taken out after 0, 24, 48 or 96 hours from placing the culture medium containing a sample. In the case of the microplate taken out after 96 hours, the culture medium was once changed after 48 hours. 3 mg/ml MTT solution PBS (−) was put in each well in an amount of 50 μl/well, and incubated for 3 hours in a CO2 incubator. After filling each well with phosphate buffered saline (PBS(−)), liquid in each well was evacuated, and isopropyl alcohol containing 0.04 mol/l HCL was put in each well in an amount of 200 μl/well. The microplates were allowed to stand overnight in a dark place, and then, absorbance at 595 nm and 655 nm (dual) was measured by a microplate reader.
In the case of Control group A, no sample was added.

BAEC [2] = experiment: Inhibitory action against FGF activity, MTT assay on BAEC with FGF 20 ng/ml; type: cell-based, bovine; set-up: key to Cell Multiplication: ↑: Accelerated; /: Tendency to increase; No change; ↓: Inhibited; ↓↓: Strongly inhibited; conditions: for Absorbance: MTT, FGF 20 ng/ml + sample 10 μM
Experimental: The fibroblast growth factor sample was prepared by dissolving a commercial FGF (Sigma Chemical Co.) in MEM (Sigma Chemical Co.)
as §1
In the case of Control group B, no sample was added.

BAEC [3] = experiment: Neovasculation / lumen formation of BAEC between two layers of type I collagen gel; type: cell-based, bovine
Experimental: BAEC was cultured between two layers of type I collagen gel, and a lumen-like netting structure formed therebetween was evaluated.
(§2) Eight parts by volume of “Vitrogen Collagen” (Collagen Co.), 1 part by volume of 0.1 N NaOH and 1 part by volume of ×10 MEM (GIBCO BRL) were placed in a tube, and mixed quickly in an ice bath. The culture solution was removed by suction, and 0.5 ml/well of the above mixture containing collagen was pipetted into each well. The microplate was placed in a CO2 incubator for about 30 minutes to gelatinize it. 1.5 ml of a medium (MEM | 2% FBS) containing a sample was added, and continued to incubate while changing the medium every second day.
(§3) The variation of cells were observed by a microscope by taking a photograph, and lumen formation was evaluated by counting the number of branches of cells forming lumen.
The inhibition test against lumen formation was carried out in the same manner as Example 15, except that α-tocopherol was substituted for DL-α-tocotrienol.

BAEC [4] = experiment: Inhibition against lumen formation induced by FGF; type: cell-based, bovine; set-up: key to Lumen Formation: ↑: Accelerated; /: Tendency to increase; No change; ↓: Inhibited; ↓↓: Strongly inhibited
Experimental: as §2, §3
The test was carried out similar to Examples 12-14, wherein FGF was added together with each tocotrienol. In the case of Control group E, no sample was added. […]

BAEC [5] = experiment: Measurement of LDH activity, rate of cell damage of BAEC
Experimental: A rate of cell damage of BAEC by the sample was evaluated by measuring free LDH activity in a culture medium using a kit for LDH-cytotoxicity testing (Wako Co.)
(§4) BAEC with confluent growth were treated with trypsin, and suspended in MEM | 10% FBS in a concentration of 5×10^4 cell/ml. The cell suspension was placed in each well of a 96 well-microplate in an amount of 100 μl/well, and incubated overnight in a CO2 incubator. The culture solution in each well was removed, and changed to 100 μl culture medium (MEM+2% FBS) containing a sample to continue incubation. In the experiment, MEM+2% FBS was employed as a negative control (NC), and 2% Tween 20 dissolved in MEM | 2% FBS was employed as a positive control (PC). After 48 hours, 50 μl culture medium in each well was transferred to a new well, and the color producing reagent in the kit was added to the new wells in an amount of 50 μl/well. After incubating for 45 minutes at room temperature, reaction was terminated by adding 100 μl of 0.5 N HCL/well, and absorbance at 595 nm was measured. The rate of cell damage was determined by the following formula:
(§5) Rate of Cell Damage=(S−N)/(P−N)×100(%)
N: Absorbance of negative control
P: Absorbance of positive control
In Control group G, no sample was added.
The assay was carried out in the same manner as Example 30, except that the tocotrienol was replaced by α-tocopherol.

BAEC [6] = experiment: Cell damage action (LDH) with FGF added; conditions: FGF 20 ng/ml + sample 10 μM
Experimental: as §4, §5
Cell damage action of DL-α-tocotrienol, DL-β-tocotrienol, DL-γ-tocotrienol, DL-δ-tocotrienol and the tocotrienol mixture was examined against FGF. […] In Control group H, no sample was added.
The assay was carried out in the same manner as Example 36, except that the tocotrienol was replaced by α-tocopherol.

BAEC [7] = experiment: Cell multiplication of BAEC, survival rate of cells using WST-1; type: cell-based, bovine; conditions: for Survival Rate of Cells (% of control): 24 hours, WST-1
Experimental: Influence of tocotrienols on cell multiplication of BAEC was examined in various concentrations. The cell multiplication was evaluated by determining the survival rate of cells using WST-1, which makes it possible to conduct high sensitivity measurement, instead of conventional MTT.
As a blank, the culture medium alone was incubated without adding cells. […] The microplate was taken out after 24 hours from placing the culture medium containing a sample. 10 μl/well of WST-1 solution was added to each well, and incubated in a CO2 incubator. After 3 hours, absorbance at 450 nm and 655 nm (dual) of each well was measured by a microplate reader.
The samples employed were DL-α-tocotrienol, DL-γ-tocotrienol and DL-δ-tocotrienol. In the case of Control group I, no sample was added.
The survival rate of cells was determined by the following formula:
Survival Rate of Cells=(S−B)/(C−B)×100(%)
The results of Table 10 were made in a graph shown in FIG. 1, and median growth inhibition concentration (IC50) was determined from the graph. In the figure, the numbers on the ordinate indicate the survival rate of cells (% of control), and the numbers on the abscissa indicate concentration (μM). ● is DL-α-tocotrienol, ▪ is DL-β-tocotrienol, Δ is DL-γ-tocotrienol, and X is DL-δ-tocotrienol, respectively.

[8] = summary, FGF (20 ng/ml) + sample (10 μM)

CC(C)=CCC/C(C)=C/CC/C(C)=C/CC[C@]1(C)CCc2cc(O)c(C)c(C)c2O1 (racemic) [DL-γ-Tocotrienol, γ-tocotrienol]
inhibitory action against cell multiplication (BAEC [1]; 10 μM, Table 1): remarkable inhibitory action | Absorbance (BAEC [1]; 0 hr): 0.101 ± 0.002 | Absorbance (BAEC [1]; 24 hrs): 0.020 ± 0.001 | Absorbance (BAEC [1]; 48 hrs): 0.010 ± 0.002 | Absorbance (BAEC [1]; 96 hrs): 0.003 ± 0.000 | Absorbance (BAEC [2]; 0 hr): 0.042 ± 0.002 | Absorbance (BAEC [2]; 24 hrs): 0.085 ± 0.004 | Absorbance (BAEC [2]; 48 hrs): 0.232 ± 0.016 | Absorbance (BAEC [2]; 96 hrs): 0.431 ± 0.011 | Cell Multiplication (BAEC [2]; [8]): ↑ | inhibition of lumen formation (BAEC [3]; 10 μM): inhibited lumen formation sufficiently | Number of Cells Forming Lumen/cm^2 (BAEC [3]; Table 4, 10 μM): 4.75 ± 0.48 /cm^2 | inhibition of lumen formation induced by FGF (BAEC [4]; 10 μM + FGF 20 ng/ml): inhibited the lumen formation induced by FGF; also recorded: exhibit inhibitory action against lumen formation | Number of Cells Forming Lumen/cm^2 (BAEC [4]; sample 10 μM + FGF 20 ng/ml): 12.50 ± 3.20 /cm^2 | Lumen Formation (BAEC [4]; [8]): ↓ | activity to damage cells (BAEC [5]; 10 μM, Table 7): have an activity to damage cells | Rate of Cell Damage (% of control) (BAEC [5]; Table 7, 10 μM, 48 hours): 265.33 ± 3.18 % of control | Rate of Cell Damage (% of control) (BAEC [6]): 101.15 ± 2.38 % of control | Survival Rate of Cells (% of control) (BAEC [7]; 10 μM): 102.3 ± 10.8 % of control | Survival Rate of Cells (% of control) (BAEC [7]; 12 μM): 15.5 ± 4.5 % of control | Survival Rate of Cells (% of control) (BAEC [7]; 14 μM): 3.4 ± 3.1 % of control | Survival Rate of Cells (% of control) (BAEC [7]; 16 μM): 0.0 ± 0.1 % of control | Survival Rate of Cells (% of control) (BAEC [7]; 18 μM): 2.0 ± 2.8 % of control | IC50 (BAEC [7]; determined from the graph of FIG. 1 (abscissa μM), read-out: median growth inhibition concentration (IC50)): 11 µM

— patent US6608103B2, “Inhibitor for neovasculation, cell multiplication, lumen formation and FGF” (Fuji Chemical Industry Co., Ltd., priority 2001, dated 2003)
